This series can be described thus: Lethal dose against HeLa cells, from a human cervix epitheloid carcinoma. The settings on record: read-out: LD50 (the source's name). In kind it is toxicity, cell-based.

Consider one compound from ChEMBL document CHEMBL1132905, “Synthesis of glycosylated polyethylenimine with reduced toxicity and high transfecting efficiency” (Bioorg Med Chem Lett, 2000).

Where only a bound is given, the exact number is not on record here.

Turning to `CCN(CCNC)CCNC[C@H](O)[C@@H](O)[C@H](O[C@@H]1O[C@H](CO)C(O)[C@H](O)[C@H]1O)[C@H](O)CO` (stereo partly specified) [GLYCOSYLATED PEI], the CC50 was over 300 µM.
